We go through three molecules from patent US10501452B2, “Lactam compound derivative and application thereof” (NHWA PHARMA. CORPORATION, priority 2015, dated 2019).

Like-named read-outs stand apart in the source and are kept apart here.

The target in one data set is Histamine H1 receptor (Cavia porcellus (Guinea pig), UniProt P31389). The data set can be described thus: Histamine H1 receptor binding assay (3H-pyrilamine). To be noted: for Ki: guinea pig cerebellum membrane, 3H-pyrilamine. Here is the method: Preparation of Histamine H1 Receptor Membrane
Guinea pigs were decapitated. […] Vortex mixer was used for blending. Centrifugation was conducted at 48000 g, 4° C. for 10 min. The supernatant was discarded to give pellets, and buffer was added again for washing. Centrifugation was conducted and repeated 3 times.
(§1) Materials for the Receptor Binding Assay
(2) 100 μL of membrane preparation was added into each reaction tube.

The target in a further data set is 5-HT2A (Rattus norvegicus (Rat), UniProt P14842). The data set is described as follows: 5-HT2A receptor binding assay ([3H]-Ketanserin). To be noted: for Ki: read-out: Ki (nM) 5-HT2A, rat cortex membrane, [3H]-Ketanserin.
The nature of data set [1]: Acute toxicity study (mice). The format is in vivo. To be noted: both sexes, KM, mouse, in vivo, po, intragastric. How it is done: (§2) Example 41: Acute Toxicity Study
(§3) Limit test of sequential assay: KM rats or mice (half male and half female) were randomly divided into several groups (with 2-5 mice in each group), which were respectively the 2000 mg/kg groups for each compound, and the solvent group. 0.2 ml/10 g were administered intragastrically. The deaths of the animals in 3 days were observed. In the case 3 or more animals survived in 3 days without notable abnormity in their life states, the observation was continued until the assay was completed in 7 days. In the case 3 or more animals died in 3 days, the method of median lethal dose was used to determine the LD50.
(§4) Pre-assay for the method of the median lethal dose: KM mice (half male and half female) were randomly divided into several groups (with 4 mice in each group), which were respectively the 500 mg/kg, 200 mg/kg, 50 mg/kg groups for each compound, and the solvent group. 0.2 ml/10 g were administered intragastrically, and the deaths of the animals in 1-3 days were observed.
(§5) Results: The compound of the invention has relatively low acute toxicity.

The nature of data set [2]: Acute toxicity study (rats). The following applies: both sexes, KM, in vivo, po, 2000 mg/kg; rat, intragastric. How it is done: as §2, §3, §5
A further data set has as its target 5-HT1A (Rattus norvegicus (Rat), UniProt P19327). The data set is described as follows: 5-HT1A receptor binding assay (3H-8-OH-DPAT). The following applies: for Ki: rat cortex membrane, 3H-8-OH-DPAT. How it is done: Rats were decapitated. […] Incubation at 37° C. was conducted for 10 min. […] Centrifugation was conducted and repeated 3 times.
as §1

Data set [3] has as its system MK-801 induced high activity in mice. The data set can be described thus: MK-801 induced high activity. The following applies: for ED50: Mus musculus, po. The class given is in vivo. How it is done: Ascorbic acid was provided by Sinopharm Chemical Reagent Co. Ltd.
Subsequently, the spontaneous activities of the mice of each group in 90 min were measured.

For the next data set, the target named is D2 (Rattus norvegicus (Rat), UniProt P61169). The data set is described as follows: D2 receptor binding assay (3H-Spiperone). To be noted: read-out: Ki (nM) D2; rat striatum membrane, 3H-Spiperone.
The subject of data set [4] is conditioned avoidance response in rats. The data set can be described thus: animal or person. The class given is in vivo, rat. The following applies: for ED50: po; for Therapeutic index: LD50 versus CAR ED50; for performance in the rat CAR model (in words): compared with risperidone. Here is the method:
[…] of SD rats, male.
Firstly, training the rats with shuttle box:
(1) The rats were allowed for adaption for five minutes;
(2) Conditioned stimulus (CS, light and noise) were started and lasted for 20 s, and at the tenth second, unconditioned stimulus (US, 1.5 mA electric shock) was performed and lasted for 10 s;
(3) Training was conducted 30 times per day for 9 days. The interval between two trainings was set randomly ranged from 20 to 30 s;
(4) Observation indicators:
The animal ran to another compartment during the conditioning stimulus was recorded as “avoidance”;
Animals ran to another compartment during the electric shock was recorded as “escape”;
Grouping of the qualified rats: the qualified rats were divided into negative control group, positive drug groups of each dosage, and compound groups of each dosage according to the principle of randomization, 8 in each group.
Administration Method: Corresponding solvent was administered intragastrically to the negative control group; corresponding dosages of positive drugs were administered intragastrically to the positive drug groups of each dosage; and corresponding dosages of compounds were administered intragastrically to the compound groups of each dosage.
CAR Assay: A CAR assay was performed 1 hour after intragastric administration. The method was the same as the CAR training. The observation indicators were the number of avoidances, the number of escapes, and the number of escape failures.
Statistical Data Processing: Assay data are presented as mean±standard deviation (Mean±SD), the comparison was performed by a combination of one-way ANOVA with post-hoc LSD. The ED50 was calculated using the probit method.

The nature of the next data set: Catalepsy assay. The following applies: both, Kunming, mouse, in vivo, po. How it is done: (§6) The durations of the mice to maintain the posture with the two forepaws on the bars were recorded, and 30 s of spasticity without moving was considered as the positive response. In the case the forepaws of the mice were not put down persistently, the observation was terminated at 60 s. The numbers of animals with positive response in each of the compound dosage groups were counted.

Another data set has as its system catalepsy in mice. The data set can be described thus: Catalepsy assay. How it is done:
as §6

In data set [5] the test system is Apomorphine induced clambering in mice. The data set is described as follows: Apomorphine induced clambering assay of mice. The class given is in vivo. To be noted: for ED50: Mus musculus, po, read-out: Apomorphine induced clambering (ED50, po, mg/kg); for improvement of apomorphine induced clambering symptoms (in words): compared with risperidone. How it is done: Healthy KM mice, male, with body weight of 18-22 g, were provided by Qinglongshan Animal Cultivation Center, Nanjing.
Apomorphine provided by Sigma Company was dissolved in 0.9% NaCl (containing 0.1% vitamin C) before use, and was freshly formulated before use.
Vitamin C, F20061113, was provided by Sinopharm Chemical Reagent Co. Ltd.
Instruments: self-made clambering cage, chronograph.
Procedures: apomorphine induced clambering assay of mice
After 5 min of adaptation, the behavior of the mice at 10-11, 20-21, and 30-31 min after the injection of apomorphine were observed and scored.

In the next data set the target is 5-HT7 receptor (Rattus norvegicus (Rat), UniProt P32305). The data set can be described thus: 5-HT7 receptor binding assay ([3H]-5-CT). The following applies: for Ki: rat hypothalamus membrane, [3H]-5-CT. How it is done:
Adult SD rats were decapitated. […] Centrifugation was conducted (repeated 3 times).
as §1

For a further data set, the system named is mice. The data set is described as follows: Acute toxicity study (mice). The class given is in vivo. To be noted: intragastric. How it is done: as §2, §3, §4, §5
[6] abbreviates: rat, intragastric, 1 hour after administration, read-out: Rat CAR ED50.
Where [7] appears, read: both, Kunming (KM), mouse, in vivo.

5-HT1A, sequence (P19327 whole entry): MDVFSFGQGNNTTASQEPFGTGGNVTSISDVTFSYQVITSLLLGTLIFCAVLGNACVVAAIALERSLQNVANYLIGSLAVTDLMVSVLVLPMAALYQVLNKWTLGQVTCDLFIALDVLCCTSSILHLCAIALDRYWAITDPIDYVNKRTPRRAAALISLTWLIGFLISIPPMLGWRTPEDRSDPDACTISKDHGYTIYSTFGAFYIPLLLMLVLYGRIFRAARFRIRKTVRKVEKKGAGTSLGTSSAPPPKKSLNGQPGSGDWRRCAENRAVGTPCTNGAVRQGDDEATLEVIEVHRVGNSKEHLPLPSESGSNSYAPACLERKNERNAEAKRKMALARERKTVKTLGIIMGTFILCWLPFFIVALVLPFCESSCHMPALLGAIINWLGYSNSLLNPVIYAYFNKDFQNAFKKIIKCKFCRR
Histamine H1 receptor, sequence (P31389 whole entry): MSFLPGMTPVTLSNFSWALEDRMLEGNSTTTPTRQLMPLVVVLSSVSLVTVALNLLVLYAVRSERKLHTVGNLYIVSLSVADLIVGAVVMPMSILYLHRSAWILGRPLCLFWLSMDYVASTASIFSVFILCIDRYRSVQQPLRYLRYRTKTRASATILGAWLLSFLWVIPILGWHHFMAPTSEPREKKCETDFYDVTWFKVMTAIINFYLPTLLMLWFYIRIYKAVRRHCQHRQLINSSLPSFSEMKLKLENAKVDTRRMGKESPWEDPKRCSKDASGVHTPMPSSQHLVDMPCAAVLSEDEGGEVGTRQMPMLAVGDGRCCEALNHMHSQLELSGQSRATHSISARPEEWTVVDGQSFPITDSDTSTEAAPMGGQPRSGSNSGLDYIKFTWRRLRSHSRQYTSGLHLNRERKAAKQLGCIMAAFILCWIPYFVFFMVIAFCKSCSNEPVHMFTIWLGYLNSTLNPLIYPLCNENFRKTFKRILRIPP
5-HT2A, sequence (P14842 whole entry): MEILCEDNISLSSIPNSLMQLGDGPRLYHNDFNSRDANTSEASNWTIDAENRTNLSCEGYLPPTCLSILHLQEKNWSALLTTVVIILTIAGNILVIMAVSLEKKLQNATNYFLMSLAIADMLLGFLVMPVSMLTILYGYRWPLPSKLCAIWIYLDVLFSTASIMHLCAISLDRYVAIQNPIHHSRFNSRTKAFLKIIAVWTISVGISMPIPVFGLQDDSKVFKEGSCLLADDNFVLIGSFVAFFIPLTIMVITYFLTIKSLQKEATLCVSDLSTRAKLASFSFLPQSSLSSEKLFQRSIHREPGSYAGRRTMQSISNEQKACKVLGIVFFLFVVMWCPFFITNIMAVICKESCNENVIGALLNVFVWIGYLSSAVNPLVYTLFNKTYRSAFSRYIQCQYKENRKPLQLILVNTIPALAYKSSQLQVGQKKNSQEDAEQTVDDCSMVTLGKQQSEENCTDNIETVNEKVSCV
5-HT7 receptor, sequence (P32305 whole entry): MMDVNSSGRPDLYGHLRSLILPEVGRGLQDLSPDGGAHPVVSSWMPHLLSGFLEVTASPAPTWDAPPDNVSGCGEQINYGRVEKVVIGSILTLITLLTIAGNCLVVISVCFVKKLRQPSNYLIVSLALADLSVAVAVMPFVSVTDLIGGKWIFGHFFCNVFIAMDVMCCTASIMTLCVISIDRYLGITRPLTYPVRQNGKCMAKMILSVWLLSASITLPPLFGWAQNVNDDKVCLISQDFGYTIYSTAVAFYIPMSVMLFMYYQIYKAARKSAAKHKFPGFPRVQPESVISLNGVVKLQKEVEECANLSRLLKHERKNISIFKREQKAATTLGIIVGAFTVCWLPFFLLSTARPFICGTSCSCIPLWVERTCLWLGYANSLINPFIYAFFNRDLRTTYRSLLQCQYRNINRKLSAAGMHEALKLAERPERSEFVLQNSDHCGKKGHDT
D2, sequence (P61169 whole entry): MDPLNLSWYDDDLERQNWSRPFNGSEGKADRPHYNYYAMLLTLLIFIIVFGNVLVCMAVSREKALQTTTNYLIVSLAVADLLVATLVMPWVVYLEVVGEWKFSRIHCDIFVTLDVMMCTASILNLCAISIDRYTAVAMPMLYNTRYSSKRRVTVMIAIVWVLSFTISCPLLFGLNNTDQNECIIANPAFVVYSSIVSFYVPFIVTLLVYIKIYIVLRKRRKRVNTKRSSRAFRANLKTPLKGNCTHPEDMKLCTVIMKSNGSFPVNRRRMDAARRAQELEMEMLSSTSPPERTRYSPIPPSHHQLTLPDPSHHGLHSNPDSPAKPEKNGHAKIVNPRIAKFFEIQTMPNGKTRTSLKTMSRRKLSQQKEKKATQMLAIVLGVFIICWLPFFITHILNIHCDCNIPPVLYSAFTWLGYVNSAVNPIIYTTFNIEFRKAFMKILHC
Description for 5-HT2A: Rats were decapitated. Cortex of brain was rapidly taken on ice, and 3 ml of buffer (0.05 M Tris-HCl buffer: 6.05 g of Tris was dissolved in 1000 ml of double-distilled water, and concentrated HCl was used to adjust to pH 7.5) was added, homogenization was conducted, and then 5 ml of buffer was added. Incubation was conducted at 37° C. for 10 min, the weight of the tubes were adjusted using a balance after incubation. Centrifugation was conducted at 12000 rpm, 4° C. for 20 min, the supernatant was discarded, and 3 ml of buffer was added. Vortex mixer was used for blending, and then 5 ml of buffer was added. Centrifugation was conducted (repeated 3 times). After the centrifugation, the supernatant was discarded, and the pellets were stored at −80° C. for future use.
(1) The prepared membrane was applied with buffer, and homogenizer was used for evenly dispersing. 15 tubes were mixed into a 100 ml container, and appropriate amount of buffer was added to give 50 ml of membrane suspension, which was reserved for future use.
(§7) (2) 100 μL of membrane preparation and 100 μL of buffer were added into each reaction tube.
(3) 100 μL of buffer was added into the total binding tube (TB), 100 μL of Methysergide (final concentration 10^−5M) was added into the nonspecific binding tube (NB), 100 μL of the test compound (final concentration 10^−5M) was added into the specific binding tube (SB) of each test compound.
(5) Each of the reaction tubes was incubated at 37° C. for 15 min. After the reaction was completed, the bound ligands were rapidly filtered under reduced pressure, and sufficiently washed with ice-chilled assay buffer. The filter was taken out and put into a 3 ml scintillation vial, and 2 ml of toluene scintillation cocktail was added and blended.
(6) The scintillation vial were put into Liquid Scintillation Counter for counting. Inhibition rate(I%)=(Total binding tube cpm−compound cpm)/(Total binding tube cpm−nonspecific binding tube cpm)×100%
Description for D2: Rats were decapitated. Striatum of brain was rapidly taken on ice, 3 ml of buffer (0.05 M Tris-HCl buffer, containing NaCl 120 mM, KCl 5 mM, MgCl2 1 mM, CaCl2 1 mM) was added, homogenization was conducted, and then 5 ml of buffer was then added. The weight of the homogenized tubes were adjusted using a balance, and centrifugation was conducted. The supernatant was discarded, and 3 ml of buffer was added. Vortex mixer was used for blending, and then 5 ml of buffer was added. Centrifugation was conducted and repeated 3 times. The supernatant was discarded after centrifugation was completed, and the pellets were stored at −80° C. for future use.
Beckman LS-6500 Multi-function Liquid Scintillation Counter was used.
(1) The prepared membrane was applied with appropriate amount of buffer, and homogenizer was used for evenly dispersing. 15 tubes were mixed into a 100 ml container, and appropriate amount of buffer was added to give 50 ml of membrane suspension, which was reserved for future use.
as §7
(3) 100 μL of buffer was added into the total binding tube (TB), 100 μL of Butaclamol (final concentration 10^−5M) was added into the nonspecific binding tube (NB), 100 μL of the test compound (final concentration 10^−5M) was added into the specific binding tube (SB) of each test compound.
(5) Each of the reaction tubes was incubated at 37° C. for 20 min. After the reaction was completed, the bound ligands were rapidly filtered under reduced pressure, and sufficiently washed with ice-chilled assay buffer. The filter was taken out and put into a 3 ml scintillation vial, and 2 ml of toluene scintillation cocktail was added and blended.
(6) The scintillation vials were put into Liquid Scintillation Counter for counting. Inhibition rate(I%)=(Total binding tube cpm−compound cpm)/(Total binding tube cpm−nonspecific binding tube cpm)×100%
Each assay for the compounds was conducted in duplicate for two individual tests.

Take `CN1CCc2ccc(OCCCN3CCN(c4ncccn4)CC3)cc2C1=O` [Compound 24, 2-methyl-7-(3-(4-(pyrimidin-2-yl)piperazin-1-yl)propoxy)-3,4-dihydroisoquinolin-1(2H)-one]: the Ki on Histamine H1 receptor is greater than 2000 nM; at 5-HT2A it was 7.5 nM; on 5-HT1A, 8.8 nM; on D2 it was 11.9 nM; on 5-HT7 receptor, 9.9 nM. In data set [1], this molecule came in with an LD50 of 190 mg/kg. The molecule also came in with an LD50 at 3 days in data set [2] of 146 mg/kg. Further, the ED50 in data set [3] was 0.18 mg/kg; in data set [4] (setting [6]), 1.02 mg/kg; in “Catalepsy assay”, 47 mg/kg; in data set [5] (mice) it was 0.22 mg/kg. Besides, in data set [4] (rat), the Therapeutic index is listed as 143. For the same molecule, in the data set on catalepsy in mice (mice, ratio of ED50 values), the Catalepsy/Apomorphine induced clambering was found to be 214. For the same molecule, in the data set on catalepsy in mice (mice, ratio of ED50 values), the “Catalepsy/MK-801 induced high activity” value was 261.

`COc1ccccc1N1CCN(CCCOc2ccc3c(c2)C(=O)N(C)CC3)CC1` [Compound 22, 7-(3-(4-(2-methoxyphenyl)piperazin-1-yl)propoxy)-2-methyl-3,4-dihydroisoquinolin-1(2H)-one]: the Ki at Histamine H1 receptor is greater than 2000 nM; at 5-HT2A, 3.2 nM; at 5-HT1A, 6.5 nM; on D2, 9.6 nM; on 5-HT7 receptor, 28.1 nM. Moreover, in data set [1], the LD50 is 311 mg/kg. This molecule also gave an LD50 at 3 days in data set [2] of 198 mg/kg. Also, the ED50 in data set [3] is 0.12 mg/kg; in data set [4] (setting [6]) it was 0.49 mg/kg; in the data set “Catalepsy assay” it was 52 mg/kg; in data set [5] (mice), 0.19 mg/kg. Further, in data set [3] (compared with risperidone), the “improvement of MK-801 induced high activity (in words)” value is given as “significantly improve”. For the same molecule, the Therapeutic index in [4] (rat) came to 404. Moreover, the “performance in the rat CAR model (in words)” value in [4] (rat) is on record as “markedly better than risperidone”. The Catalepsy/Apomorphine induced clambering with catalepsy in mice (mice, ratio of ED50 values) was 273. The “Catalepsy/MK-801 induced high activity” value with catalepsy in mice (mice, ratio of ED50 values) is listed as 433. In addition, in the data set on catalepsy in mice (mouse, in vivo), the “EPS in effective dosage (in words)” value is recorded as “do not cause EPS”. In data set [5] (mice), the “improvement of apomorphine induced clambering symptoms (in words)” value is on record as “effectively improve”.

Regarding `CN1CCc2ccc(OCCCN3CCC(c4noc5cc(F)ccc45)CC3)cc2C1=O` [Compound 5, 7-(3-(4-(6-fluorobenzo[d]isoxazol-3-yl)piperidin-1-yl)propoxy)-2-methyl-3,4-dihydroisoquinolin-1(2H)-one], on Histamine H1 receptor, the “affinity for H1 (in words)” value is recorded as “low affinity” and the Ki is greater than 2000 nM. Further, on 5-HT2A, the “affinity for 5-HT2A (in words)” value is “strong affinities” and the Ki came to 0.1 nM. In addition, the median lethal dose (LD50) in data set [1] turned out to be 258 mg/kg. Moreover, in the data set on mice, the “LD50 (po, mg/kg)” value turned out to be 257 mg/kg. In data set [2], the LD50 at 3 days was found to be 168 mg/kg. In addition, at 5-HT1A, the “affinity for 5-HT1A (in words)” value was “strong affinities” and the Ki was 2.4 nM. In addition, in data set [4] (Rattus norvegicus, 1 h, read-out: Rat CAR ED50 (mg/kg)), the ED50 is 0.32 mg/kg. In data set [4] (rat), the “performance in the rat CAR model (in words)” value is on record as “markedly better than risperidone”. Also, the ED50 in the data set “Catalepsy assay” was determined as 35 mg/kg. In addition, in the data set with catalepsy in mice (setting [7]), the Catalepsy/Apomorphine induced clambering amounted to 700 and the “Catalepsy/MK-801 induced high activity” value is 875. For the same molecule, the “EPS in effective dosage (in words)” value in the data set with catalepsy in mice (mouse, in vivo) was “do not cause EPS”. Also, the ED50 in data set [5] amounted to 0.05 mg/kg. The “improvement of apomorphine induced clambering symptoms (in words)” value in data set [5] (mice) was “effectively improve”. On 5-HT7 receptor, the “affinity for 5HT7 (in words)” value is “high affinity” and the Ki amounted to 5.9 nM.
